According to US11179375B2, “Methods and drug products for treating Alzheimer's disease” (Zinfandel Pharmaceuticals, Inc., priority 2011, dated 2021):
Counter-ions that a name gives are not always drawn. Like-named read-outs stand apart in the source and are kept apart here. One block for each compound: values may come before it.

What was measured:
[1] = test system: rat brain; assay: Rat BOLD fMRI study of resting state functional connectivity; format: in vivo
Procedure: BOLD fMRI was used to measure drug-related changes in resting state functional connectivity across the whole brain.
Adult male Wistar rats (275±25 g) were housed separately and maintained on a 12-h light, 12-h dark schedule. Food and water was provided ad libitum. Animals were cared for in accordance with the guidelines published in the Guide for the Care and Use of Laboratory Animals (National Institutes of Health Publications No. 85-23, Revised 1985). Animal body weights were measured approximately 24 hours before Day −3, and on Study Days 3 and 6.
Pioglitazone HCl (PIO) was dissolved in 0.5 mol/L citric acid (CA) to yield a stock solution at a concentration of 0.32 mg/10 mL/kg. Other dosages were prepared by appropriate dilution of the stock solution with 0.5 mol/L CA to yield dose volumes of 10 mL/kg. Control rats received the vehicle at 10 mL/kg. Dose concentrations were based on the weight of the test article as supplied (i.e., as the HCl salt), with the dose adjusted to the most recent body weight of the animal. Daily dosing with PIO in solution was by oral gavage at approximately the same time every day. Animals were anesthetized lightly with isoflurane immediately beforehand to facilitate dosing.
All animals used in the imaging studies were acclimated to the MRI holding device by being placed in it for 15-90 minutes daily for at least 7 days, as previously described (Zhang et al. 2010 J Neurosci Methods 189: 186-196; Liang et al. 2011 J Neurosci 31: 3776-3783).
After the acclimation period, animals were assigned to 1 of 7 treatment arms matched for mean body weights (see Table 1). Dosing occurred once daily, at approximately the same time every day. All animals were imaged at Baseline (Study Day −3), approximately 2.5 to 3 h after dosing with vehicle. Dosing began 3 days later (Study Day 1). On this day, all animals were administered either vehicle (CA) or PIO depending on their group assignment. On Study Day 2, one vehicle group and one group treated with PIO at 0.08 mg/kg/day (Acute Arm) were imaged approximately 2.5 to 3 h after dosing. For all groups, dosing continued for seven days total. On Study Day 7, all rats were imaged approximately 2.5 to 3 h after administration of the final dose.
Animal preparation activities related to imaging were initiated to insure that the imaging itself occurred approximately 2.5 to 3 h after dosing. The animals were prepared for positioning in the restraint under isoflurane anesthesia as previously described (Zhang et al. 2010, supra). […] Imaging was conducted on awake animals.
All MR experiments were conducted using a 4.7 T/40 cm horizontal magnet (Oxford, UK) interfaced with a BiospecBruker console (Bruker, Germany) and equipped with a 20 G/cm magnetic field gradient. A dual ^1H radiofrequency (RF) coil configuration (Insight Neurolmaging Systems, Worcester, Mass.) consisting of a volume coil for exciting the water proton spins and a surface coil for receiving MRI signal was used; the volume and surface coils were actively tuned and detuned to prevent mutual coil coupling. This dual-coil configuration allowed for sufficient RF field homogeneity in the rat brain for RF transmission, while preserving the advantage of higher signal-to-noise ratio (SNR) provided by the smaller reception coil.
Anatomical images were acquired first using a multi-slice fast spin-echo sequence (RARE) with the parameters: repetition time (TR)=2125 ms; RARE factor=8; effective echo time (TE)=50 ms; matrix size=256×256; field of view (FOV)=3.2×3.2 cm^2; slice number=18; slice thickness=1 mm; n=8.

[2] = in vivo; settings: rat
From the text: (§1) Extrapolation to the corresponding dosage in humans was achieved while adjusting for the relative AUC for each.

[3] = Human exposure (AUC) used for dose extrapolation; settings: in vivo, humans, dose of 7.5 mg
From the text: as §1

[4] = test system: cell death due to glucose deprivation; settings: cited from earlier work
[5] = test system: diabetic patients with AD or mild cognitive impairment; settings: placebo-controlled clinical trials; cited from earlier work
[6] = test system: neuronal insulin resistance; settings: cited from earlier work
[7] = test system: transgenic mouse models of AD, and mouse and rat models of neurodegeneration or brain injury; settings: in vivo; cited from earlier work

blood brain barrier penetration ([1]; low-dose PIO, administered orally, concluded from fMRI changes): penetrates the blood brain barrier
AUC ([2]; Wistar, po, 0.04 mg/kg/day): 0.57 µg·h/mL
AUC ([2]; Wistar, po, 0.08 mg/kg/day): 1.14 µg·h/mL
AUC ([2]; Wistar, po, 0.16 mg/kg/day): 2.28 µg·h/mL
AUC ([2]; Wistar, po, 0.32 mg/kg/day): 4.55 µg·h/mL
AUC ([2]; 0.5 mg/kg/day): 7.11 µg·h/mL
AUC [3]: 2.8 µg·h/mL
Compound: CCc1ccc(CCOc2ccc(CC3SC(=O)NC3=O)cc2)nc1 (stereo not shown) [PIO, Pioglitazone HCl]
time at which functional changes were induced ([1]; 0.08 mg/kg/day, earliest time point assayed after initiation of treatment): ≤ 24 h
fMRI signal relative to lower dosages ([1]; 0.32 mg/kg/day, appearance in FIG. 1, to be confirmed): diminished signal
dose that induced functional changes at earliest time point ([1]; 24 hours after initiation of treatment): ≥ 0.08 mg/kg/day
dose that induces change in metabolism in deep subcortical structure of the rat brain (fMRI) ([1]; group-averaged fMRI signal, treatment day 7, relative to vehicle control): ≥ 0.04 mg/kg/day
dose that induces changes in multiple brain regions ([1]; oral, relative to vehicle control): ≥ 0.04 mg/kg/day

brain concentration (0.5 mg dose): approximately 6.7 nM
serum concentration (0.5 mg dose): approximately 33.3 nM
brain concentration (1.5 mg dose): approximately 20 nM
serum concentration (1.5 mg dose): approximately 100 nM
brain concentration (4.5 mg dose): approximately 50 nM
serum concentration (4.5 mg dose): approximately 300 nM
brain concentration (9 mg dose): approximately 120 nM
serum concentration (9 mg dose): approximately 600 nM
Compound: CCc1ccc(CCOc2ccc(CC3SC(=O)NC3=O)cc2)nc1 (stereo not shown) [pioglitazone, Pioglitazone]
change in metabolism in the central region of the deep cortical structures of the brain (fMRI) ([1]; even the lowest doses, orally-administered, immediate release): produce a change in metabolism
concentration that significantly reduces cell death due to glucose deprivation [4]: ≥ 1 nM
expression of NRF1, TFAM1 and UCP-2 [4]: increases expression
cognition [5]: improved
hyperinsulinemia [5]: improved
regional cerebral blood flow [5]: improved regional cerebral blood flow
neuronal insulin resistance [6]: improves neuronal insulin resistance
reported effects in animal models (amyloid plaque burden, brain glucose utilization, inflammation, oxidative stress, memory and learning deficits, neurogenesis) [7]: Beneficial effects
